Results taken from patent publication US20240285513A1, “TOPICAL COMPOSITION AGAINST FINE LINES AND WRINKLES” (priority 2021, published 2024).
Values joined by “and” are separate entries in the source; they are usually repeats but may differ in a detail not shown here. Equal entries are not always repeated. Marks after values point to notes of the source that are not given here.

Experiments:
Settings in all cases: human
[1] = tested on: fine lines and wrinkles, glabella area; assay: Comparative in vivo clinical study (Example 7): clinical grading of fine lines and wrinkles
Excerpt: (§1) The purpose of the comparative in vivo clinical study was to evaluate the efficacy of a combination of the three extracts for muscle relaxation and wrinkle reduction over four weeks of twice-daily application on Experimental Group 1 participants using a micro-roller (n=33) versus application on Experimental Group 2 participants without using a micro-roller (n=30). The combination of the three extracts was placed in a dermatologically acceptable vehicle as the test product. The dermatologically acceptable vehicle was designed to test the efficacy of the combination of the three extracts when applied with a micro-roller versus application without a micro-roller. Study participants in Experimental Group 1 used a 1.0 mm microroller. Study participants applied the composition containing the three extracts between their eyebrows in the morning and the evening after cleansing their face with a personal cleanser. For Experimental Group 1, study participants used the micro-roller 3 times per week in the evenings by rolling the micro-roller back and forth 4 to 5 times between eyebrows changing directions with each pass. […] The amounts of each extract used in the dermatologically acceptable vehicle was Rosmarinus officinalis leaf extract at 1 wt. %, Lavendula stoechas extract at 2 wt. %, and Acmella oleracea extract at 2 wt. %. […]

[2] = tested on: muscle contraction in the glabella region; assay: Comparative in vivo clinical study (Example 7): EMG muscle response with or without micro-roller
Excerpt: as §1

[3] = tested on: fine lines and wrinkles, glabella area; assay: In vivo clinical study (Example 6): clinical grading of fine lines and wrinkles
[4] = tested on: muscle contraction in the glabella region; assay: In vivo clinical study (Example 6): electromyography (EMG) muscle response

onabotulinumtoxinA [BoTox] was tested, and the “% Clinical Improvement of Wrinkles” value [1] was 31%* and 35%*, the “% EMG Response (AUC)” value [2] was 58%* and 40%* and the “% Clinical Improvement of Wrinkles” value [3] was 31%* and 35%*. For the same substance, the “% EMG Response (AUC)” value [4] was 58%* and 40%*.
